{"source": "patent US20250368619A1", "about": "“SUBSTITUTED TETRAHYDROCYCLOHEPTA[E]INDOLE DERIVATIVES, PROCESSES FOR THEIR PREPARATION AND THERAPEUTIC USES THEREOF” (SANOFI, priority 2022, published 2025)"}
{"biological_target": "T1, ERα (Homo sapiens, UniProt P03372)", "T1 construct": "host or cells: MCF7", "T1 sequence (P03372 1-595)": "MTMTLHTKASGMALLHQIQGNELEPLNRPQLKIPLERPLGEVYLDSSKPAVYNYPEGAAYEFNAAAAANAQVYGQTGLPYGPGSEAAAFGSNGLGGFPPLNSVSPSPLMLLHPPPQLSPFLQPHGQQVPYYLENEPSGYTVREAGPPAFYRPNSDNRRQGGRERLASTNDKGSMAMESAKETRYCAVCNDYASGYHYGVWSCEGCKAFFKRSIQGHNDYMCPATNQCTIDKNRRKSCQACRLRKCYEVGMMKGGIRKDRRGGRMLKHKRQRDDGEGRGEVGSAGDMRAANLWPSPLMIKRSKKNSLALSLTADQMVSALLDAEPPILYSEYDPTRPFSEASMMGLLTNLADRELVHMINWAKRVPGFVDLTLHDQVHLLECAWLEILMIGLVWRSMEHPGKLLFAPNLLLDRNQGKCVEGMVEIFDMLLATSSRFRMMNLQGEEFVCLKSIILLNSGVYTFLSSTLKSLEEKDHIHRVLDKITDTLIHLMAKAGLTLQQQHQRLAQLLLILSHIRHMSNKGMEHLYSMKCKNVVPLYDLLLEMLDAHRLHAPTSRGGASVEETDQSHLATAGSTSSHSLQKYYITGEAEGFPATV", "assay": "Estrogen receptor degradation activity: breast cancer cell ERα in cell western assay in MCF7 cells", "assay_type": "cell-based", "details": "4 hours, relative to fulvestrant 0.1 μM positive control", "method": "Test: Estrogen receptor degradation activity\nSaid test involves measuring the in vitro degradation activity of the compounds of the table 1.\nThe measurements of the degradation activities were made using a breast cancer cell ERα in cell western assay as described hereunder.\nMCF7 cells (ATCC) were seeded in 384 wells microplate (collagen coated) at a concentration of 10000 cells/30 μL per well in red phenol free MEM alpha medium (invitrogen) containing 5% charcoal dextran striped FBS. The following day, 9 points serial 1:5 dilution of each compound was added to the cells in 2.5 μL at final concentrations ranging from 0.3-0.0000018 μM (in table 2), or 0.1 μM for fulvestrant (using as positive control). At 4 hours post compound addition the cells were fixed by adding 25 μL of formalin (final concentration 5% formalin containing 0.1% triton) for 10 minutes at RT and then washed twice with PBS. Then, 50 μL of LI-COR blocking buffer containing 0.1% Triton was added to plate for 30 minutes at RT. LI-COR blocking buffer was removed and cells were incubated overnight at cold room with 50 μL anti-ER rabbit monoclonal antibody (Thermo scientific MA1-39540) diluted at 1:1000 in LI-COR blocking buffer containing 0.1% tween-20. Wells which were treated with blocking buffer but no antibody were used as background control. Wells were washed twice with PBS (0.1% tween-20) and incubated at 37° C. for 60 minutes in LI-COR (0.1% tween-20) containing goat anti-rabbit antibody Alexa 488 (1:1000) and Syto-64 a DNA dye (2 μM final concentration). Cells were then washed 3 times in PBS and scanned in ACUMEN explorer (TTP-Labtech). Integrated intensities in the green fluorescence and red fluorescence were measured to determine the levels of ERα and DNA respectively.\nThe degradation activity with respect to estrogen receptors in this test is given by the concentration which degrades 50% of the estrogen receptor (or IC50) in nM.\nThe % of ERα levels decrease were determined as follows: % inhibition=100*(1−(sample−fulvestrant:DMSO−fulvestrant)).", "units": {"% Degradation At 0.3 μM": "%"}}
{"smiles": "Cc1cc(F)ccc1C1=C(c2ccc(CC3CN(CCCF)C3)cc2)c2ccc3[nH]ccc3c2CCC1", "note": "[Compound 1, 7-(4-fluoro-2-methylphenyl)-6-(4-((1-(3-fluoropropyl)azetidin-3-yl)methyl)phenyl)-3,8,9,10-tetrahydrocyclohepta[e]indole]", "% Degradation At 0.3 μM": 80}
{"smiles": "COc1nccc(C2=C(c3ccc(CC4CN(CCCF)C4)cc3)c3ccc4[nH]ccc4c3CCC2)c1F", "note": "[Compound 2, 7-(3-fluoro-2-methoxypyridin-4-yl)-6-(4-((1-(3-fluoropropyl)azetidin-3-yl)methyl)phenyl)-3,8,9,10-tetrahydrocyclohepta[e]indole]", "% Degradation At 0.3 μM": 92}
{"smiles": "Cc1c(Cl)cccc1C1=C(c2ccc(C=C3CN(CCCF)C3)cc2)c2ccc3[nH]ccc3c2CCC1", "note": "[Compound 3, 7-(3-chloro-2-methylphenyl)-6-(4-((1-(3-fluoropropyl)azetidin-3-ylidene)methyl)phenyl)-3,8,9,10-tetrahydrocyclohepta[e]indole]", "% Degradation At 0.3 μM": 91}
{"smiles": "FCCCN1CC[C@H](Oc2ccc(C3=C(c4ccc(Cl)cc4Cl)CCCc4c3ccc3[nH]ccc43)cc2)C1", "note": "[Compound 4, (S)-7-(2,4-dichlorophenyl)-6-(4-((1-(3-fluoropropyl)pyrrolidin-3-yl)oxy)phenyl)-3,8,9,10-tetrahydrocyclohepta[e]indole]", "% Degradation At 0.3 μM": 85}
{"smiles": "FCCCN1CC[C@H](Oc2ccc(C3=C(C4=CCC(F)(F)CC4)CCCc4c3ccc3[nH]ccc43)cc2)C1", "note": "[Compound 5, (S)-7-(4,4-difluorocyclohex-1-en-1-yl)-6-(4-((1-(3-fluoropropyl)pyrrolidin-3-yl)oxy)phenyl)-3,8,9,10-tetrahydrocyclohepta[e]indole]", "% Degradation At 0.3 μM": 95}
{"smiles": "Oc1c(F)ccc(C2=C(c3ccc(CC4CN(CCCF)C4)cc3)c3ccc4[nH]ccc4c3CCC2)c1F", "note": "[Compound 6, 2,6-difluoro-3-(6-(4-((1-(3-fluoropropyl)azetidin-3-yl)methyl)phenyl)-3,8,9,10-tetrahydrocyclohepta[e]indol-7-yl)phenol]", "% Degradation At 0.3 μM": 90}
{"smiles": "FCCCN1CC(Cc2ccc(C3=C(c4ccc(Cl)cc4Cl)CCCc4c3ccc3[nH]ccc43)cc2)C1", "note": "[Compound 7, 7-(2,4-dichlorophenyl)-6-(4-((1-(3-fluoropropyl)azetidin-3-yl)methyl)phenyl)-3,8,9,10-tetrahydrocyclohepta[e]indole]", "% Degradation At 0.3 μM": 82}
{"smiles": "Cc1c(Cl)cccc1C1=C(c2ccc(CC3CN(CCCF)C3)cc2)c2ccc3[nH]ccc3c2CCC1", "note": "[Compound 8, 7-(3-chloro-2-methylphenyl)-6-(4-((1-(3-fluoropropyl)azetidin-3-yl)methyl)phenyl)-3,8,9,10-tetrahydrocyclohepta[e]indole]", "% Degradation At 0.3 μM": 83}
{"smiles": "COc1cccc(C2=C(c3ccc(CC4CN(CCCF)C4)cc3)c3ccc4[nH]ccc4c3CCC2)c1OC", "note": "[Compound 9, 7-(2,3-dimethoxyphenyl)-6-(4-((1-(3-fluoropropyl)azetidin-3-yl)methyl)phenyl)-3,8,9,10-tetrahydrocyclohepta[e]indole]", "% Degradation At 0.3 μM": 80}
{"smiles": "FCCCN1CC(Cc2ccc(C3=C(c4cccc(C(F)(F)F)c4)CCCc4c3ccc3[nH]ccc43)cc2)C1", "note": "[Compound 10, 6-(4-((1-(3-fluoropropyl)azetidin-3-yl)methyl)phenyl)-7-(3-(trifluoromethyl)phenyl)-3,8,9,10-tetrahydrocyclohepta[e]indole]", "% Degradation At 0.3 μM": 73}
{"smiles": "N#Cc1cccc(C2=C(c3ccc(CC4CN(CCCF)C4)cc3)c3ccc4[nH]ccc4c3CCC2)c1", "note": "[Compound 11, 3-(6-(4-((1-(3-fluoropropyl)azetidin-3-yl)methyl)phenyl)-3,8,9,10-tetrahydrocyclohepta[e]indol-7-yl)benzonitrile]", "% Degradation At 0.3 μM": 75}
